Data published in ChEMBL document CHEMBL1201862, “PubChem BioAssay data set” (2004).
Activity calls are given as the source filed them.

Key:
Cytochrome P450 2C9 = Cytochrome P450 2C9 (Homo sapiens, UniProt P11712)
Cytochrome P450 3A4 = Cytochrome P450 3A4 (Homo sapiens, UniProt P08684);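 further: CYP3A4 tested as one member of a cytochrome P450 panel screen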
[1] = biological target: Dual specificity tyrosine-phosphorylation-regulated kinase 1A (Rattus norvegicus, UniProt Q63470); assay type: biochemical, Homo sapiens
Escherichia coli = experiment: microbe, parasite or virus in culture
[2] = biological target: T1, DNA repair protein RAD52 homolog (Homo sapiens, UniProt P43351); assay type: functional, biochemical
T1 sequence (P43351 whole entry): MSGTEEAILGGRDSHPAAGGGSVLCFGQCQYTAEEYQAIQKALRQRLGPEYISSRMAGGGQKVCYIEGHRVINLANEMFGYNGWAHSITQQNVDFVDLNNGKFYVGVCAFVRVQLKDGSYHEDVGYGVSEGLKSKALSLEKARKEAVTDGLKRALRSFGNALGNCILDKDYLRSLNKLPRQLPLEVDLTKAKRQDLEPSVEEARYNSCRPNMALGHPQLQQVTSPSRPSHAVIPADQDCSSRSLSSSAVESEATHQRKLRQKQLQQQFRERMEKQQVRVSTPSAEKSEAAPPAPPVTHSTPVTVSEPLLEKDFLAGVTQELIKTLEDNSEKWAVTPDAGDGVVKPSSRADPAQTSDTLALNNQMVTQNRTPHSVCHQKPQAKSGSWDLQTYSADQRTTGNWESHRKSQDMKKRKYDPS

[3] = biological target: T2, Ubiquitin-conjugating enzyme E2 N (Homo sapiens, UniProt P61088); assay type: functional
T2 sequence (P61088 whole entry): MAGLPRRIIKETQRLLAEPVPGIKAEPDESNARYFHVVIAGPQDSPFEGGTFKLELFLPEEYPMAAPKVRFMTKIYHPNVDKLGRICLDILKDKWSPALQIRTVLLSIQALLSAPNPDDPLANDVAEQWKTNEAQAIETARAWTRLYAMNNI

[4] = biological target: T2, Ubiquitin-conjugating enzyme E2 N; assay type: functional; remark: listed apart in the source
Nonstructural protein 1 = Nonstructural protein 1 (Influenza A virus, UniProt Q194T2); assay type: functional, Influenza A virus (A/California/07/2009(H1N1))
Bcl-2-related protein A1 = biological target: T3, Bcl-2-related protein A1 (Mus musculus, UniProt Q07440); assay type: functional;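 further: confirmatory dose–response counterscreen on Bfl-1, used to check hits from a UBC13 polyubiquitin inhibitor campaign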
T3 sequence (Q07440 whole entry): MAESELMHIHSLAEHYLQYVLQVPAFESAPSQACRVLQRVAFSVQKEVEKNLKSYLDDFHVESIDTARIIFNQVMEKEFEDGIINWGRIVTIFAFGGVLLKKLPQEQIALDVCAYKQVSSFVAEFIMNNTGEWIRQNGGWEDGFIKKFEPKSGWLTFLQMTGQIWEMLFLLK

[5] = microbe, parasite or virus in culture; assay type: functional; details: Mycobacterium tuberculosis
[6] = Luminescence Cell-Based Dose Retest to Confirm Inhibitors of Cancer Stem Cells. [Related pubchem assays (depositor defined):AID2717, AID2721]; assay type: functional; details: Homo sapiens
Melanocortin receptor 4 = Melanocortin receptor 4 (Homo sapiens, UniProt P32245); assay type: functional, cell-based;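 further: Cell-based assay with luminescence read-out, confirmatory dose-response testing for agonist activity of biased ligands at MC4R; human U2OS cells with tagged receptor and beta-arrestin; potency of agonists that increase receptor coupling to beta-arrestin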
Cytochrome P450 1A2 = biological target: T4, Cytochrome P450 1A2 (Homo sapiens, UniProt P05177);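 further: PubChem cytochrome P450 panel assay, CYP1A2 panel member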
T4 sequence (P05177 whole entry): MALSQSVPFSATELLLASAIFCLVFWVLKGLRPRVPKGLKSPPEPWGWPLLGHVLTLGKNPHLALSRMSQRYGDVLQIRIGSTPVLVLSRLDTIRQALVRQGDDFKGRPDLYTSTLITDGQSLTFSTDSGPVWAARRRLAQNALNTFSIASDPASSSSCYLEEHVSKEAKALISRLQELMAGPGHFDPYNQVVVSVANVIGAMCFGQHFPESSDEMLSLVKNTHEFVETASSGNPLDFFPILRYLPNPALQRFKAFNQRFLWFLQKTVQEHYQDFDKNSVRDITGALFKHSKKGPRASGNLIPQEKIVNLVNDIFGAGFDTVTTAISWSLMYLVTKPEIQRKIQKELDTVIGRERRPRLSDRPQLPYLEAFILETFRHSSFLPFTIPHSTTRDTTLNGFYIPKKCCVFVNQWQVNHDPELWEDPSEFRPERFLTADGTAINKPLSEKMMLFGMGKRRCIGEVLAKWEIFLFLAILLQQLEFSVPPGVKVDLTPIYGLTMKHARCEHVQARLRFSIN

Cytochrome P450 2C19 = Cytochrome P450 2C19 (Homo sapiens, UniProt P33261); experiment: Cytochrome panel assay with activity outcomes. Panel member name: p450-cyp2c19 Compounds with AC50 equal or less than 10 uM are considered active; assay type: functional
[7] = test system: Streptococcus sp. 'group A'; experiment: growth inhibition of control SK(-) GAS strain, dose response, counter-screen for streptokinase expression inhibitor project, luminescence, kanamycin, BacTiterGlo, confirmation (AID 1900); assay type: functional, organism-based
Streptokinase A = biological target: T5, Streptokinase A (Streptococcus pyogenes serotype M1, UniProt P10520); experiment: S. pyogenes streptokinase expression inhibitors, potency, dose response, plasminogen activation absorbance, OD405 (AID 1914); assay type: functional, Streptococcus pyogenes M1 GAS;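 further: secreted streptokinase activity via plasminogen activation per viability signal from cell pellet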
T5 sequence (P10520 whole entry): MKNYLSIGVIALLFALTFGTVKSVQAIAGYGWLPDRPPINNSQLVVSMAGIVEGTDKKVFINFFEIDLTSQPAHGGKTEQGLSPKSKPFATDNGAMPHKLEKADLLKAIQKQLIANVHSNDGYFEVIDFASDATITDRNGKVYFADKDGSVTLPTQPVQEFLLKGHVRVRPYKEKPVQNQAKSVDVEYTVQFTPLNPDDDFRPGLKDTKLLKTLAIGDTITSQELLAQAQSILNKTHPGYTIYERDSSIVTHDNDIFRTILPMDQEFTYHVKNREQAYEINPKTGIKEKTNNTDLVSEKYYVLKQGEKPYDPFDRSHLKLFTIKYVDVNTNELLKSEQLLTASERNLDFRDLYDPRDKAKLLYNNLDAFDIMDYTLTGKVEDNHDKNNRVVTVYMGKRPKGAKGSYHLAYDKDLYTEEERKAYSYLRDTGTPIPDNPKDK

Streptococcus = experiment: Group A Streptococcus viability loss, dose response, counter-screen for streptokinase expression inhibitor project, luminescence, BacTiterGlo (AID 1915); assay type: functional, organism-based;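 further: potency for reduction of bacterial viability or growth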
[8] = cytotoxicity in HEK-293T cells, dose response, cytotoxicity control for TCR NF-kB inhibitor project, luminescence, T-cell screen hits (AID 489026); assay type: functional, cell-based;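 further: cells exposed to compound about 14 hours before the viability readout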
[9] = Luminescence Cell-Based Dose Confirmation HTS to Identify Activators of 5'UTR Stem-Loop Driven Alpha-Synuclein mRNA Translation in H4 Neuroglioblastoma Cells. [Related pubchem assays: 1829 (Project Summary), 1814 (Primary HTS)]; assay type: functional
H4 = experiment: Luminescence Cell-Based Dose Response HTS to Identify Activators of 5'UTR Stem-Loop Driven Prion Protein mRNA Translation in H4 Neuroglioblastoma Cells. [Related pubchem assays: 1829 (Project Summary), 1814 (Primary HTS)]; assay type: functional; details: Homo sapiens
[10] = Luminescence Cell-Based Dose Response HTS to Identify Activators of Luciferase Translation or Activity in H4 […] Cells. [Related pubchem assays: 1829 (Project Summary), 1814 (Primary HTS)]; assay type: functional
[11] = biological target: T6, Heat shock factor protein 1 (Mus musculus, UniProt P38532); experiment: inhibition of MG132-induced HSE-luciferase signal, confirmation, cell-based, NIH3T3, luminescence, dose retest (AID 2382); assay type: functional;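 further: NIH3T3 fibroblasts with HSF1-driven luciferase reporter stressed by proteasome inhibitor MG132; luminescence from HSF1-driven luciferase expression after 8 hours of MG132 stress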
T6 sequence (P38532 whole entry): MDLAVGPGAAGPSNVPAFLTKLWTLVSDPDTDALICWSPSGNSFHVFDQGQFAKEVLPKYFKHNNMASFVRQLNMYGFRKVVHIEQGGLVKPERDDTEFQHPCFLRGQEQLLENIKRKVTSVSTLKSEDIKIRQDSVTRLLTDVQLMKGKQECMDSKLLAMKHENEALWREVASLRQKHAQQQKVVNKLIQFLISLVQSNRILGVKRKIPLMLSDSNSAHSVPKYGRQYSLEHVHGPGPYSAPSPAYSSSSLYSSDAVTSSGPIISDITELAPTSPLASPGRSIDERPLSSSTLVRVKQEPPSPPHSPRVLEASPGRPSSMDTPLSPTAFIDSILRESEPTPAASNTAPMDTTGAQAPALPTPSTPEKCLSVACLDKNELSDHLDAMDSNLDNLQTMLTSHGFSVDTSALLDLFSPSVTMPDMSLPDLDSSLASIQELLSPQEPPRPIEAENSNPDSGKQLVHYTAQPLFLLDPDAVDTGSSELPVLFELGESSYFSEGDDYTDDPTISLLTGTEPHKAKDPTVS

Phospholipase A2 = Phospholipase A2 (Homo sapiens, UniProt P04054); assay type: functional;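 further: confirmatory dose-response counterscreen on phospholipase A2, testing hits that came from an ultra-high-throughput screen for ATG4B inhibitors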
Cysteine protease ATG4B = biological target: T7, Cysteine protease ATG4B (Homo sapiens, UniProt Q9Y4P1); assay type: functional;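 further: Fluorescence-based dose-response confirmation assay measuring inhibition of ATG4B activity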
T7 sequence (Q9Y4P1 whole entry): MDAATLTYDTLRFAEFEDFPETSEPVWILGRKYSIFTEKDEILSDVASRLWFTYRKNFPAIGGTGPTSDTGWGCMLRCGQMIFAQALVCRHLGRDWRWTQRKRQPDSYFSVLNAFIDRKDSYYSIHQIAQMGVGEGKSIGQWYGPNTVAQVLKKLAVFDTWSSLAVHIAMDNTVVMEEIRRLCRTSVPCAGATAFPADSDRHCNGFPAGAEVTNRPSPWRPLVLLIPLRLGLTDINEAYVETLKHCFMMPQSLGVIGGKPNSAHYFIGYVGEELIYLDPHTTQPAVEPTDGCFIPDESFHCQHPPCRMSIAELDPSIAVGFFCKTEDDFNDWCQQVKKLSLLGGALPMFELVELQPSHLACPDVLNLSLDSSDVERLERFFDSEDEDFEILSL

Cytochrome P450 3A4, sequence (P08684 whole entry): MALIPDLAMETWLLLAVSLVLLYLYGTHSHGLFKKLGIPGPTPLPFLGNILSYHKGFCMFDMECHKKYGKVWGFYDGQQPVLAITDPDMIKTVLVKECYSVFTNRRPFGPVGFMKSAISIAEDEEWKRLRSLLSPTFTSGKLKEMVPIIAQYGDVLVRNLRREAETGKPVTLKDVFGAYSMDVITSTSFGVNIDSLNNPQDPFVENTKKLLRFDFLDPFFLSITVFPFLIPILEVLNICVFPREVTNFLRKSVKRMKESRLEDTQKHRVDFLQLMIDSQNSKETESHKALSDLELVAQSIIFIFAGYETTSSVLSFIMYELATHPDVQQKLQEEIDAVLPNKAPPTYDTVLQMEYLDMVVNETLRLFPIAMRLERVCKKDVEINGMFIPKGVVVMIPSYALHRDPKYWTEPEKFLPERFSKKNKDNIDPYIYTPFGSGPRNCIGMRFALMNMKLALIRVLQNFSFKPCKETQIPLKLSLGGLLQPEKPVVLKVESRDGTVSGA
Cytochrome P450 2C9, sequence (P11712 whole entry): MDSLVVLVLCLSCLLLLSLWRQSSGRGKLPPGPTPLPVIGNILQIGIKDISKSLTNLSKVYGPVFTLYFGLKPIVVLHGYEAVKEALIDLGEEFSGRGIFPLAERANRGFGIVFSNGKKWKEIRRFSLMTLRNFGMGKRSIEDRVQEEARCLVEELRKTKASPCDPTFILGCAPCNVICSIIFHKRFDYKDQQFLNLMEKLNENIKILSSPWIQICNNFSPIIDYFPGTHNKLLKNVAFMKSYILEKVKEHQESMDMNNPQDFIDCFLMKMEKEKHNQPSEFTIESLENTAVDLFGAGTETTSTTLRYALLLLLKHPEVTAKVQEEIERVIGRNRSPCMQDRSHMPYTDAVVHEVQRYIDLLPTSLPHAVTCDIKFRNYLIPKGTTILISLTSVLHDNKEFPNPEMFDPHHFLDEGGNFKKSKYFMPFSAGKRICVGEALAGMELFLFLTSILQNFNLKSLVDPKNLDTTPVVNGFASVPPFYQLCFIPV
Melanocortin receptor 4, sequence (P32245 whole entry): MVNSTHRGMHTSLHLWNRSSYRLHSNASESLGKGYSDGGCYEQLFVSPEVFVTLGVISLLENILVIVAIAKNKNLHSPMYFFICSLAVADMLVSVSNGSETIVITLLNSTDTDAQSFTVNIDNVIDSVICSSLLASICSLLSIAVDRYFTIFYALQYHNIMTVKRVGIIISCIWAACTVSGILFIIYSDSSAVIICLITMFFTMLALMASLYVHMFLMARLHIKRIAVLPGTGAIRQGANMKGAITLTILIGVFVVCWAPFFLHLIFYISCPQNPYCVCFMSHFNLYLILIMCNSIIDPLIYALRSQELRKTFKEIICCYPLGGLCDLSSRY
Phospholipase A2, sequence (P04054 whole entry): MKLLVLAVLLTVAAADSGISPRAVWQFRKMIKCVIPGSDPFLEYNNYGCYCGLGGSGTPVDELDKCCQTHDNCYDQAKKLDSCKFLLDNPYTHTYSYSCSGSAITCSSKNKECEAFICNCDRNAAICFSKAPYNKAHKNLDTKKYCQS
Cytochrome P450 2C19, sequence (P33261 whole entry): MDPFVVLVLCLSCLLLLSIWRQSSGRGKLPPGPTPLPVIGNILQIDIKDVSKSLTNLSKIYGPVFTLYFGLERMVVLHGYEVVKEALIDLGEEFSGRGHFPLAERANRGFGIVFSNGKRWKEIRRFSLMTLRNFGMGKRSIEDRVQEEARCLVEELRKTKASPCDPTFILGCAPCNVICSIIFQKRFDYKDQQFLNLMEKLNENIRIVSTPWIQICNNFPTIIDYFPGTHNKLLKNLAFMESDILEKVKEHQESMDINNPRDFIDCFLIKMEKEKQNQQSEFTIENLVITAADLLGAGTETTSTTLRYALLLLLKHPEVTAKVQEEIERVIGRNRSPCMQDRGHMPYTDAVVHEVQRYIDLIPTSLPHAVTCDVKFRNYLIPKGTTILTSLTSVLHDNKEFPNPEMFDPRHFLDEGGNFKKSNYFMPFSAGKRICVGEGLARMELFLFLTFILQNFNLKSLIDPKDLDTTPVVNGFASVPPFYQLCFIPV
Nonstructural protein 1, sequence (Q194T2 whole entry): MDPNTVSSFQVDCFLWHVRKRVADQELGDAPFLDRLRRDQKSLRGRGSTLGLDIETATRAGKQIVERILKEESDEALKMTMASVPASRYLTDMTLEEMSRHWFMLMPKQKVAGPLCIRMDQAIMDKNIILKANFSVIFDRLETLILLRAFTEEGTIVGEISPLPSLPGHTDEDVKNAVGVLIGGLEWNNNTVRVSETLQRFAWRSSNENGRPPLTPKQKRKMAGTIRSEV

In the case of `O=C(c1ccccc1F)c1cn(Cc2ccccc2)c2ccccc12`, the AC50 (Cytochrome P450 2C9) is reported as 35.5 µM (inconclusive) and the AC50 (Cytochrome P450 3A4) is reported as “inconclusive”.
For `Oc1ccc(/C=N/n2c(S)nnc2-c2ccccc2)cc1Br`, the AC50 [1] was 11.8 µM (active).
In the case of `COC(=O)C(C)Oc1cc(C)cc2oc(=O)c3c(c12)CCCC3` (stereo not given), the AC50 (Escherichia coli) is reported as 28.2 µM (active).
In the case of `O=C(c1ccc(-c2cc(O)c3ncccc3c2)cc1)N1CCNCC1`, the AC50 [2] is reported as 1.66 µM (active), the IC50 [3] is reported as 3.61 µM (active) and the IC50 [4] is reported as 3.14 µM (active). The IC50 (Nonstructural protein 1) was 9.74 µM (active) and the IC50 (Bcl-2-related protein A1) was 7 µM (active).
In the case of `COc1cc2nc(Nc3ccc(C)c(Cl)c3)nc(N)c2cc1OC`, the CC50 [5] is reported as 3.77 µM (active), the AC50 [2] is reported as 9.23 µM (active) and the AC50 [6] is reported as 6.52 µM (active). The IC50 [3] was 8.57 µM (active), the IC50 [4] was 5.71 µM (active) and the EC50 (Melanocortin receptor 4) was > 89.2 µM (inactive). For the same compound, the IC50 (Bcl-2-related protein A1) was 18.7 µM (active).
In the case of `O=C(/C=C/c1ccccc1)Nc1cccnc1Oc1ccccc1F`, the AC50 [1] is reported as 11.1 µM (active).
In the case of `CC(=O)O[C@H]1CC[C@@]2(C)[C@@H](CC[C@H]3[C@H]2CC(=O)[C@]2(C)[C@@H]3C[C@@H](N3CC3)[C@H]2C(C)=O)C1`, the AC50 (Cytochrome P450 1A2) is reported as 0.0398 µM (inconclusive), the AC50 (Cytochrome P450 2C19) is reported as “inconclusive” and the AC50 (Cytochrome P450 3A4) is reported as “inconclusive”.
With `Cc1cccc(/C=N/NC(=O)c2cc(C3CC3)nc3ccccc23)n1` the AC50 (Escherichia coli) was 37.9 µM (active).
For `COC(=O)Cc1cc(O)n2nc(C)c(-c3ccccc3)c2n1`, the AC50 (Cytochrome P450 3A4) was “inconclusive”.
For `C=CCN1CCc2c(cc(O)c(O)c2Cl)[C@H](c2ccccc2)C1`, the AC50 (Cytochrome P450 1A2) was 20 µM (inconclusive), the AC50 (Cytochrome P450 2C9) was 31.6 µM (inconclusive) and the AC50 (Cytochrome P450 3A4) was “inconclusive”.
For `Cc1c(C(=O)N/N=C/c2ccc(Cl)cc2)[nH]c2ccc(Cl)cc12`, the EC50 [7] was 2.61 µM (active), the EC50 (Streptokinase A) was > 150 µM (not active) and the EC50 (Streptococcus) was 10.9 µM (active). For the same compound, the IC50 [8] was > 80 µM (inactive).
With `CC(=O)Oc1ccc(C(=O)Cc2ccccn2)c(O)c1` the AC50 (Escherichia coli) was 27.9 µM (active).
For `Cc1ccc(N2CN=c3s/c(=C\c4ccccn4)c(=O)n3C2)cc1`, the EC50 [9] was > 120 µM (not active), the EC50 (H4) was > 120 µM (not active) and the EC50 [10] was 29.5 µM (active). The AC50 [1] was 3.58 µM (active) and the EC50 [11] was > 195 µM (not active).
In the case of `Oc1ccc(/C=N/n2c(-c3ccccc3)n[nH]c2=S)cc1`, the AC50 [1] is reported as 4.2 µM (active).
For `O=C(Oc1c(-c2ccccc2)c(=O)n2c3c(cccc13)CC2)c1ccc(F)cc1`, the IC50 (Phospholipase A2) was 10.9 µM (active) and the IC50 (Cysteine protease ATG4B) was 14.1 µM (active).
In the case of `O=C(c1cn(Cc2ccccc2)nc1-c1ccccc1)N1CCN(c2ccccn2)CC1`, the IC50 [8] is reported as > 80 µM (inactive).
With `COc1ccc(S(=O)(=O)N2N=C(C)Oc3ccccc3C2=O)cc1` the IC50 [8] was > 80 µM (inactive).
